In patent US6465505B1, “Benzyl-substituted benzimidazoles” (AstraZeneca AB, priority 1996, dated 2002):

System: acid secretion in isolated rabbit gastric glands
Experiment: Acid secretion inhibition in isolated rabbit gastric glands
Format: cell-based
Settings: Oryctolagus cuniculus, in vitro, read-out: IC50, inhibiting effect on acid secretion in vitro
Protocol: Acid Secretion Inhibition in Isolated Rabbit Gastric Glands
Inhibiting effect on acid secretion in vitro in isolated rabbit gastric glands was measured as described by Berglindh et al. (1976) Acta Physiol. Scand. 97, 401-414.

Row | SMILES | IC50 [µM]
1 | Cc1nc2c(NCc3ccccc3)cccc2[nH]1 [Compound (A), 4-benzylamino-2-methylbenzimidazole] | 12.9
2 | Cc1nc2c(OCc3ccccc3)cccc2[nH]1 [Compound (B), 4-benzyloxy-2-methyl benzimidazole] | 7.8
